The nature of series [1]: Stability test of the compounds in a 5% aqueous glucose solution. Type of series: physicochemical. The conditions noted are these: room temperature; for Dissociation percent (%): 5% glucose solution, about 0.5 mg/ml, HPLC; for Solution: appearance of the about 0.5 mg/ml solution in 5% glucose. As to the method: Each of the compounds to be tested was weighed (1 mg), placed in a 5% glucose solution (2 ml) and formulated into a solution having a concentration of about 0.5 mg/ml. The solution stood at room temperature, and was sampled at several time points (0.5 h, 1 h, 2 h, 3 h and 5 h).

Series [2] in a line: Solubility of the compounds in water (25° C.). Type of series: physicochemical.
Series [3] can be described thus: Dissociation test of the compounds in whole blood of rats. Type of series: in vitro ADME. Particulars: rat whole blood, 37° C., HPLC. The protocol:
Each of the compounds to be tested was weighed (1 mg), placed in water (2 ml), and formulated into a solution having a concentration of about 0.5 mg/ml as a stock solution for further use. Whole blood of rats (0.45 ml) was taken and placed in a 2 ml EP tube, which was placed in a 37° C. water bath for preheating for 20 seconds. Then the stock solution of the compound (50 μL) was added quickly. After a homogeneous mixing, the EP tube was placed in a 37° C. water bath, and time counting was initiated. Acetonitrile (1 ml) was injected immediately at predetermined time points (1 min, 3 min, 5 min, 15 min). The solution was centrifuged for 5 min (15000 rpm), filtered with a 0.22 μm filtration membrane and subjected to HPLC detection, and the results were given below: […]

Experimental findings from patent US20190322698A1, “WATER-SOLUBLE ALLOPR[…] USE THEREOF” (JIANGSU NHWALUOKANG PHARMACEUTICAL RESEARCH AND DEVELOPMENT …, priority 2016, published 2019) are described below.

What is called Solubility is the dissolved amount per volume that the medium holds. A high value points to a readily soluble substance.

Bounds are passed on as bounds.

On to `CC(=O)C1CCC2C3CCC4CC(OC(=O)C(F)C(=O)[O-])CCC4(C)C3CCC12C.[Na+]` (stereo not drawn) [Compound 10], for which the “Dissociation percent (%)” value amounted to 0.02% in series [1] (0 h); 0.14% in series [1] (0.5 h); 0.21% in series [1] (1 h); 0.36% in series [1] (2 h); 0.51% in series [1] (3 h); 0.86% in series [1] (5 h). Also, the “Dissociation percent (%)” value in series [3] (1 min) was 39.78%; in series [3] (3 min) it was 52.28%; in series [3] (5 min) it was 72.31%; in series [3] (15 min), 100%. Moreover, in series [1], the Solution result is given as “Clear”. Also, the “Solubility” value in series [2] is more than 400 µg/mL.

On to `CC(=O)C1CCC2C3CCC4CC(OC(=O)C(F)CC(=O)[O-])CCC4(C)C3CCC12C.[Na+]` (stereo not drawn) [Compound 11], for which the “Dissociation percent (%)” value in series [1] (0 h) was 0.02%; in series [1] (0.5 h), 0.11%; in series [1] (1 h) it was 0.19%; in series [1] (2 h), 0.32%; in series [1] (3 h) it was 0.49%; in series [1] (5 h) it was 0.79%. Further, the “Dissociation percent (%)” value in series [3] (1 min) is 40.83%; in series [3] (3 min), 50.35%; in series [3] (5 min), 69.32%; in series [3] (15 min) it was 100%. In series [1], the Solution result is given as “Clear”. In addition, the “Solubility” value in series [2] is more than 400 µg/mL.

Take `CC(=O)C1CCC2C3CCC4CC(OC(=O)C(F)CCOP(=O)([O-])[O-])CCC4(C)C3CCC12C.[Na+].[Na+]` (stereo not drawn) [Compound 16]: the “Dissociation percent (%)” value is reported as 0.02% in series [1] (0 h); 0.13% in series [1] (0.5 h); 0.21% in series [1] (1 h); 0.41% in series [1] (2 h); 0.62% in series [1] (3 h); 0.93% in series [1] (5 h). Further, the “Dissociation percent (%)” value in series [3] (1 min) is 35.94%; in series [3] (3 min), 47.88%; in series [3] (5 min), 66.47%; in series [3] (15 min) it was 94.56%. Also, the Solution entry in series [1] was “Clear”. For the same compound, the “Solubility” value in series [2] was more than 300 µg/mL.
